# From patent US8217032B2, “Selective estrogen receptor modulators for the treatment of vasomotor symptoms” (Eli Lilly and Company, priority 2004, dated 2012)
# What was measured:
# [1] = test system: ovariectomized Sprague-Dawley rats; experiment: Morphine withdrawal, rat hot flash model; format: in vivo; conditions: LRL data
# Text: Morphine withdrawal, rat hot flash model: Simpkins et al. (1983) first published morphine withdrawal in the rat as a putative model for hot flashes, based on observations highlighting the similarity of symptoms of gonadal steroid withdrawal to those of opioid withdrawal. Although less severe, the signs and symptoms associated with clinical hot flashes, or estrogen deficiency, in the rat parallel those produced by naloxone-precipitated withdrawal in morphine dependent rats, including: 1) an increase in tail skin temperature, 2) a surge in luteinizing hormone and 3) an increase in heart rate. Each of these responses are associated with an increase in sympathetic outflow, which is a current mechanistic hypothesis for hot flashes. […] A key feature of animal models, is that they mimic the treatment efficacy observed with the human disease. The morphine withdrawal hot flash model, either in its originally described form, or with the modifications described herein, is responsive to agents typically used in the treatment of human hot flashes. This includes various forms of estrogen (Simpkins et al., 1983; LRL data), clonidine (LRL data), tibolone (LRL data), and medroxyprogesterone (LRL data). Furthermore, the model is sensitive to agents known to be associated with the induction of hot flashes in postmenopausal women.
# A modification of the original procedure of Simpkins et al. (1983) is used which employs ovariectomized Sprague-Dawley rats. […]
# On day 21 post-ovariectomy, animals are given […] (80 mg/kg; IM) 2-hours after final administration of the test compound. […] Temperature monitoring is initiated 30 minutes after administration of […] and is recorded every 15 seconds for a 1-hr period. […] A sharp rise in tail skin temperature typically occurs within 5 minutes post-naloxone injection, and two quantitative endpoints are made: 1) tail skin temperature at 15 min post-naloxone, and 2) area under the temperature response curve for the 45-min post-naloxone measurement period. […] Uteri are also removed at this time, and wet weight recorded.
# [2] = Phase III clinical studies; cited from earlier work
Compound,responsiveness of the morphine withdrawal hot flash model to agents typically used in the treatment of human hot flashes [1],incidence of hot flash compared to placebo [2]
Clc1cccc(Cl)c1N=C1NCCN1 [clonidine],responsive,
O=C(c1ccc(OCCN2CCCCC2)cc1)c1c(-c2ccc(O)cc2)sc2cc(O)ccc12 [raloxifene],,slight increased incidence of hot flash
C#C[C@]1(O)CC[C@H]2[C@@H]3[C@H](C)CC4=C(CCC(=O)C4)[C@H]3CC[C@@]21C [tibolone],responsive,
medroxyprogesterone,responsive,
